Source: paper PMC12069442 (Frontiers in Pharmacology, 2025)

Experiments:
CYP3A4.1 = CYP3A4.1 (Homo sapiens, UniProt P08684); assay: Ziprasidone catalysis by recombinant CYP3A4.1
Description: (§1) Following the incubation, 400 μL of ACN and 20 μL of IS were added to the mixture. The sample was then vortexed and centrifuged, and the resulting supernatant was collected for analysis via LC-MS/MS.

CYP3A4.3 = CYP3A4.3 (Homo sapiens, UniProt P08684, M445T); assay: Ziprasidone catalysis by recombinant CYP3A4.3
Description: as §1

CYP3A4.5 = CYP3A4.5 (Homo sapiens, UniProt P08684, P218R); assay: Ziprasidone catalysis by recombinant CYP3A4.5
Description: as §1

CYP3A4.8 = CYP3A4.8 (Homo sapiens, UniProt P08684, R130Q); assay: Ziprasidone catalysis by recombinant CYP3A4.8
Description: as §1

CYP3A4.9 = CYP3A4.9 (Homo sapiens, UniProt P08684, V170I); assay: Ziprasidone catalysis by recombinant CYP3A4.9
Description: as §1

CYP3A4.10 = CYP3A4.10 (Homo sapiens, UniProt P08684, D174H); assay: Ziprasidone catalysis by recombinant CYP3A4.10
Description: as §1

CYP3A4.12 = CYP3A4.12 (Homo sapiens, UniProt P08684, L373F); assay: Ziprasidone catalysis by recombinant CYP3A4.12
Description: as §1

CYP3A4.13 = CYP3A4.13 (Homo sapiens, UniProt P08684, P416L); assay: Ziprasidone catalysis by recombinant CYP3A4.13
Description: as §1

CYP3A4.14 = CYP3A4.14 (Homo sapiens, UniProt P08684, L15P); assay: Ziprasidone catalysis by recombinant CYP3A4.14
Description: as §1

CYP3A4.15 = CYP3A4.15 (Homo sapiens, UniProt P08684, R162Q); assay: Ziprasidone catalysis by recombinant CYP3A4.15
Description: as §1

CYP3A4.16 = CYP3A4.16 (Homo sapiens, UniProt P08684, T185S); assay: Ziprasidone catalysis by recombinant CYP3A4.16; conditions: CYP3A4.16, CL = Vmax/Km
Description: as §1

CYP3A4.18 = CYP3A4.18 (Homo sapiens, UniProt P08684, L293P); assay: Ziprasidone catalysis by recombinant CYP3A4.18
Description: as §1

CYP3A4.19 = CYP3A4.19 (Homo sapiens, UniProt P08684, P467S); assay: Ziprasidone catalysis by recombinant CYP3A4.19
Description: as §1

CYP3A4.23 = CYP3A4.23 (Homo sapiens, UniProt P08684, R162W); assay: Ziprasidone catalysis by recombinant CYP3A4.23
Description: as §1

CYP3A4.24 = CYP3A4.24 (Homo sapiens, UniProt P08684, Q200H); assay: Ziprasidone catalysis by recombinant CYP3A4.24; conditions: CYP3A4.24, CL = Vmax/Km
Description: as §1

CYP3A4.28 = CYP3A4.28 (Homo sapiens, UniProt P08684, L22V); assay: Ziprasidone catalysis by recombinant CYP3A4.28
Description: as §1

CYP3A4.31 = CYP3A4.31 (Homo sapiens, UniProt P08684, H324Q); assay: Ziprasidone catalysis by recombinant CYP3A4.31
Description: as §1

CYP3A4.32 = CYP3A4.32 (Homo sapiens, UniProt P08684, I335T); assay: Ziprasidone catalysis by recombinant CYP3A4.32
Description: as §1

CYP3A4.33 = CYP3A4.33 (Homo sapiens, UniProt P08684, A370S); assay: Ziprasidone catalysis by recombinant CYP3A4.33; conditions: CYP3A4.33, CL = Vmax/Km
Description: as §1

CYP3A4.34 = CYP3A4.34 (Homo sapiens, UniProt P08684, I427V); assay: Ziprasidone catalysis by recombinant CYP3A4.34; conditions: CYP3A4.34, CL = Vmax/Km
Description: as §1

[1] = design: method as in Beedham et al., 2003; conditions: humans; ref Beedham et al., 2003; cited from earlier work
[2] = Rat pharmacokinetic study of ziprasidone and ziprasidone sulfoxide with resveratrol or quercetin; conditions: male, Sprague-Dawley, plasma, po, 15 mg/kg, rats, n=6; for CL/F: CLz/F; for Vd/F: Vz/F; for half-life: t1/2z
Description: To minimize potential confounding effects of hormonal fluctuations, this study exclusively utilized male Sprague-Dawley (SD) rats (340 ± 15 g) obtained from Vital River Laboratories (Beijing, China).
Following a 7-day acclimatization period under controlled conditions (temperature: 20°C–25°C; humidity: 50%–65%; 12h/12 h light/dark cycle), 18 rats were fasted for 12 h (water ad libitum) and randomly divided into three treatment groups (n = 6 per group).
Serial blood samples (50 μL) were collected at predetermined time points (0, 1, 2, 4, 6, 8, 10, 12, 24, and 48 h) and processed with 150 μL acetonitrile and 20 μL midazolam IS (500 ng/mL). After vortex-mixing (2 min) and centrifugation (10,075 × g, 10 min), the supernatant was subjected to LC-MS/MS analysis. […] Calibration curves were established over 1–1,000 ng/mL for both analytes, with samples processed identically to study specimens.
Essential pharmacokinetic parameters were determined using a non-compartmental model through Drug and Statistics (DAS) software version 3.0. For the polymorphism experiment results, one-way ANOVA was performed in GraphPad Prism 8.0, while pharmacokinetic data were assessed using an unpaired t-test, with a p-value below 0.05 deemed statistically significant.

[3] = ziprasidone 15 mg/kg oral + quercetin 50 mg/kg i.g.
[4] = ziprasidone 15 mg/kg oral + resveratrol 50 mg/kg i.g.
[5] = ziprasidone 15 mg/kg oral, control (corn oil)

CYP3A4.5, sequence (P08684 whole entry P218R): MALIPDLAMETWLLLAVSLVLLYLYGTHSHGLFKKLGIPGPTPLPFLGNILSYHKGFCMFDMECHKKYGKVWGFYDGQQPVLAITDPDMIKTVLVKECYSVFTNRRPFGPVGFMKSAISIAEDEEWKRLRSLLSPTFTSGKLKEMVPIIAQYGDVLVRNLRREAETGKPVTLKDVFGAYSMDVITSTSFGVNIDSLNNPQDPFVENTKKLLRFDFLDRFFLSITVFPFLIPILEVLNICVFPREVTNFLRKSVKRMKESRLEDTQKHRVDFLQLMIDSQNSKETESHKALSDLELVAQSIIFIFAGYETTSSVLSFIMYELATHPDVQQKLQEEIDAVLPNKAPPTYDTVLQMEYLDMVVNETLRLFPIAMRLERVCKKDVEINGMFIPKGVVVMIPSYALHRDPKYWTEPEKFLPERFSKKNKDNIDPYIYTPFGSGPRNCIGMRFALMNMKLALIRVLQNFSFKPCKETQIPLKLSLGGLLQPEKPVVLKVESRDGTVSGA
CYP3A4.28, sequence (P08684 whole entry L22V): as the sequence (P08684 whole entry P218R) above, with L22V, R218P counted along it
CYP3A4.10, sequence (P08684 whole entry D174H): as the sequence (P08684 whole entry P218R) above, with D174H, R218P counted along it
CYP3A4.15, sequence (P08684 whole entry R162Q): as the sequence (P08684 whole entry P218R) above, with R162Q, R218P counted along it
CYP3A4.3, sequence (P08684 whole entry M445T): as the sequence (P08684 whole entry P218R) above, with R218P, M445T counted along it
CYP3A4.18, sequence (P08684 whole entry L293P): as the sequence (P08684 whole entry P218R) above, with R218P, L293P counted along it
CYP3A4.8, sequence (P08684 whole entry R130Q): as the sequence (P08684 whole entry P218R) above, with R130Q, R218P counted along it
CYP3A4.32, sequence (P08684 whole entry I335T): as the sequence (P08684 whole entry P218R) above, with R218P, I335T counted along it
CYP3A4.23, sequence (P08684 whole entry R162W): as the sequence (P08684 whole entry P218R) above, with R162W, R218P counted along it
CYP3A4.12, sequence (P08684 whole entry L373F): as the sequence (P08684 whole entry P218R) above, with R218P, L373F counted along it
CYP3A4.14, sequence (P08684 whole entry L15P): as the sequence (P08684 whole entry P218R) above, with L15P, R218P counted along it
CYP3A4.9, sequence (P08684 whole entry V170I): as the sequence (P08684 whole entry P218R) above, with V170I, R218P counted along it
CYP3A4.13, sequence (P08684 whole entry P416L): as the sequence (P08684 whole entry P218R) above, with R218P, P416L counted along it
CYP3A4.31, sequence (P08684 whole entry H324Q): as the sequence (P08684 whole entry P218R) above, with R218P, H324Q counted along it
CYP3A4.19, sequence (P08684 whole entry P467S): as the sequence (P08684 whole entry P218R) above, with R218P, P467S counted along it
CYP3A4.1, sequence (P08684 whole entry): as the sequence (P08684 whole entry P218R) above, with R218P counted along it
CYP3A4.24, sequence (P08684 whole entry Q200H): as the sequence (P08684 whole entry P218R) above, with Q200H, R218P counted along it
CYP3A4.16, sequence (P08684 whole entry T185S): as the sequence (P08684 whole entry P218R) above, with T185S, R218P counted along it
CYP3A4.33, sequence (P08684 whole entry A370S): as the sequence (P08684 whole entry P218R) above, with R218P, A370S counted along it
CYP3A4.34, sequence (P08684 whole entry I427V): as the sequence (P08684 whole entry P218R) above, with R218P, I427V counted along it

Question: For `O=C1Cc2cc(CCN3CCN(c4nsc5ccccc45)CC3)c(Cl)cc2N1` [ziprasidone, Ziprasidone], which CL (CYP3A4.1; CYP3A4.1, CL = Vmax/Km) is on record?
Answer: 6.07 ± 1.19 µL/min/pmol

Question: What about the “% of CYP3A4.1” value (CYP3A4.1; CYP3A4.1, relative clearance) of the same compound?
Answer: 100.00 ± 19.66%

Question: What about the CL (CYP3A4.3; CYP3A4.3, CL = Vmax/Km) of the same compound?
Answer: 9.30 ± 0.85 µL/min/pmol

Question: What about the “% of CYP3A4.1” value (CYP3A4.3; CYP3A4.3, relative clearance) of the same compound?
Answer: 153.26 ± 14.08 %

Question: And the CL (CYP3A4.5; CYP3A4.5, CL = Vmax/Km)?
Answer: 4.65 ± 0.52 µL/min/pmol

Question: And the “% of CYP3A4.1” value (CYP3A4.5; CYP3A4.5, relative clearance)?
Answer: 76.73 ± 8.59%

Question: What about the CL (CYP3A4.8; CYP3A4.8, CL = Vmax/Km) of the same compound?
Answer: 5.71 ± 0.42 µL/min/pmol

Question: What about the “% of CYP3A4.1” value (CYP3A4.8; CYP3A4.8, relative clearance) of the same compound?
Answer: 94.14 ± 6.86%

Question: What about the CL (CYP3A4.9; CYP3A4.9, CL = Vmax/Km) of the same compound?
Answer: 7.92 ± 0.36 µL/min/pmol

Question: What about the “% of CYP3A4.1” value (CYP3A4.9; CYP3A4.9, relative clearance) of the same compound?
Answer: 130.65 ± 6.00%

Question: What about the CL (CYP3A4.10; CYP3A4.10, CL = Vmax/Km) of the same compound?
Answer: 4.52 ± 0.35 µL/min/pmol

Question: What about the “% of CYP3A4.1” value (CYP3A4.10; CYP3A4.10, relative clearance) of the same compound?
Answer: 74.60 ± 5.81%

Question: And the CL (CYP3A4.12; CYP3A4.12, CL = Vmax/Km)?
Answer: 5.72 ± 0.87 µL/min/pmol

Question: What about the “% of CYP3A4.1” value (CYP3A4.12; CYP3A4.12, relative clearance) of the same compound?
Answer: 94.29 ± 14.33%

Question: And the CL (CYP3A4.13; CYP3A4.13, CL = Vmax/Km)?
Answer: 5.60 ± 0.90 µL/min/pmol

Question: What about the “% of CYP3A4.1” value (CYP3A4.13; CYP3A4.13, relative clearance) of the same compound?
Answer: 92.30 ± 14.84%

Question: What about the CL (CYP3A4.14; CYP3A4.14, CL = Vmax/Km) of the same compound?
Answer: 6.64 ± 0.48 µL/min/pmol

Question: And the “% of CYP3A4.1” value (CYP3A4.14; CYP3A4.14, relative clearance)?
Answer: 109.41 ± 7.88%

Question: What about the CL (CYP3A4.15; CYP3A4.15, CL = Vmax/Km) of the same compound?
Answer: 9.53 ± 1.38 µL/min/pmol

Question: What about the “% of CYP3A4.1” value (CYP3A4.15; CYP3A4.15, relative clearance) of the same compound?
Answer: 157.07 ± 22.67 %

Question: And the CL (CYP3A4.16)?
Answer: 6.79 ± 1.26 µL/min/pmol

Question: And the CL (CYP3A4.18; CYP3A4.18, CL = Vmax/Km)?
Answer: 6.56 ± 1.12 µL/min/pmol

Question: What about the “% of CYP3A4.1” value (CYP3A4.18; CYP3A4.18, relative clearance) of the same compound?
Answer: 89.27 ± 15.28%

Question: And the CL (CYP3A4.19; CYP3A4.19, CL = Vmax/Km)?
Answer: 6.19 ± 0.53 µL/min/pmol

Question: What about the “% of CYP3A4.1” value (CYP3A4.19; CYP3A4.19, relative clearance) of the same compound?
Answer: 84.26 ± 7.20%

Question: What about the CL (CYP3A4.23; CYP3A4.23, CL = Vmax/Km) of the same compound?
Answer: 6.11 ± 0.83 µL/min/pmol

Question: What about the “% of CYP3A4.1” value (CYP3A4.23; CYP3A4.23, relative clearance) of the same compound?
Answer: 83.13 ± 11.26%

Question: What about the CL (CYP3A4.24) of the same compound?
Answer: 3.46 ± 0.67 µL/min/pmol

Question: And the CL (CYP3A4.28; CYP3A4.28, CL = Vmax/Km)?
Answer: 5.69 ± 1.01 µL/min/pmol

Question: And the “% of CYP3A4.1” value (CYP3A4.28; CYP3A4.28, relative clearance)?
Answer: 77.40 ± 13.81%

Question: And the CL (CYP3A4.31; CYP3A4.31, CL = Vmax/Km)?
Answer: 4.08 ± 0.83 µL/min/pmol

Question: What about the “% of CYP3A4.1” value (CYP3A4.31; CYP3A4.31, relative clearance) of the same compound?
Answer: 55.46 ± 11.30 %

Question: What about the CL (CYP3A4.32; CYP3A4.32, CL = Vmax/Km) of the same compound?
Answer: 7.66 ± 1.55 µL/min/pmol

Question: What about the “% of CYP3A4.1” value (CYP3A4.32; CYP3A4.32, relative clearance) of the same compound?
Answer: 104.25 ± 21.13%

Question: What about the CL (CYP3A4.33) of the same compound?
Answer: 14.74 ± 0.74 µL/min/pmol

Question: And the CL (CYP3A4.34)?
Answer: 4.65 ± 0.66 µL/min/pmol

Question: And the “administered dose excreted unchanged” value [1]?
Answer: less than 5%

Question: What about the AUC(0-t) [2, 3] of the same compound?
Answer: 9390 ng·h/mL

Question: And the AUC(0-t) [2, 4]?
Answer: 6760 ng·h/mL

Question: What about the AUC(0-t) [2, 5] of the same compound?
Answer: 6610 ng·h/mL

Question: And the AUC(0-inf) [2, 3]?
Answer: 9390 ng·h/mL

Question: And the AUC(0-inf) [2, 4]?
Answer: 6760 ng·h/mL

Question: What about the AUC(0-inf) [2, 5] of the same compound?
Answer: 6980 ng·h/mL

Question: And the CL/F [2, 3]?
Answer: 94.2 mL/min/kg

Question: And the CL/F [2, 4]?
Answer: 150 mL/min/kg

Question: What about the CL/F [2, 5] of the same compound?
Answer: 43.8 mL/min/kg

Question: What about the Cmax [2, 3] of the same compound?
Answer: 1620 ng/mL

Question: What about the Cmax [2, 4] of the same compound?
Answer: 1160 ng/mL

Question: What about the Cmax [2, 5] of the same compound?
Answer: 963 ± 367 ng/mL

Question: And the Tmax [2, 3]?
Answer: 4 ± 1.79 h

Question: And the Tmax [2, 4]?
Answer: 4.33 ± 2.66 h

Question: And the Tmax [2, 5]?
Answer: 4 ± 2.19 h

Question: What about the Vd/F [2, 3] of the same compound?
Answer: 33.3 ± 22.1 L/kg

Question: And the Vd/F [2, 4]?
Answer: 56.1 ± 42.7 L/kg

Question: And the Vd/F [2, 5]?
Answer: 24.3 ± 19.1 L/kg

Question: And the half-life [2, 3]?
Answer: 227 ± 127 min

Question: And the half-life [2, 4]?
Answer: 244 ± 91.2 min

Question: What about the half-life [2, 5] of the same compound?
Answer: 518 ± 648 min
